Patent publication US20250136722A1, “CYTOTOXICITY TARGETING CHIMERAS” (GLAXOSMITHKLINE INTELLECTUAL PROPERTY DEVELOPMENT LIMITED, priority 2021, published 2025)
Where “and” joins values, the source holds several entries; their conditions need not be identical. Equal values may be shown once. Where a name gives a salt, the structure may show the parent alone.

Biological target: T1, CHOK1 cells engineered to overexpress human CCR2 (Homo sapiens, UniProt P41597)
T1 construct: expressed in transfected cells; host or cells: CHOK1 cells
Experiment: Antibody dependent cellular cytotoxicity (ADCC) reporter assay (Example 199)
Format: cell-based
Conditions: with anti-cotinine antibody SEQ ID NO: 11/12; CHOK1-human CCR2 target cells, Jurkat FcγRIIIa NFAT-luciferase reporter cells; 12-18 hours; read-out: ADCC Reporter Assay pEC50 (converted)
How it was run: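 CHOK1-hCCR2 target cells are co-incubated for 12–18 h with Jurkat FcγRIIIa/NFAT-luciferase reporter cells, ARM compound (1 pM–10 μM) and anti-cotinine antibody with a DE-mutant human IgG1 Fc (0.01–200 μg/mL). Luminescence is expressed as signal:background against no-compound wells; EC50 comes from nonlinear fit and is reported as pEC50, averaged across runs.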

SMILES | EC50
CC(C)N(C)[C@@H]1CC[C@H](N2CC[C@H](Nc3ncnc4ccc(C(F)(F)F)cc34)C2=O)[C@H](NC(=O)CCCCCCCCC(=O)NCCCCCCCCCCNC(=O)[C@H]2CC(=O)N(C)[C@@H]2c2cccnc2)C1 [Example 165, N^1-((1R,2S,5R)-5-(isopropyl(methyl)amino)-2-((S)-2-oxo-3-((6-(trifluoromethyl)quinazolin-4-yl)amino)pyrrolidin-1-yl)cyclohexyl)-N^10-(10-((2S,3S)-1-methyl-5-oxo-2-(pyridin-3-yl)pyrrolidine-3-carboxamido)decyl)decanediamide] | 1.26 nM
CC(C)N(C)[C@@H]1CC[C@H](N2CC[C@H](Nc3ncnc4ccc(C(F)(F)F)cc34)C2=O)[C@H](NC(=O)CCOCCC(=O)N2CCC3(CCC(C(=O)NCCNC(=O)[C@H]4CC(=O)N(C)[C@@H]4c4cccnc4)CC3)CC2)C1 [Example 167, 3-(3-(3-(((1R,2S,5R)-5-(Isopropyl(methyl)amino)-2-((S)-2-oxo-3-((6-(trifluoromethyl)quinazolin-4-yl)amino)pyrrolidin-1-yl)cyclohexyl)amino)-3-oxopropoxy)propanoyl)-N-(2-((2S,3S)-1-methyl-5-oxo-2-(pyridin-3-yl)pyrrolidine-3-carboxamido)ethyl)-3-azaspiro[5.5]undecane-9-carboxamide] | 1.26 nM
CC(C)N(C)[C@@H]1CC[C@H](N2CC[C@H](Nc3ncnc4ccc(C(F)(F)F)cc34)C2=O)[C@H](NC(=O)[C@H]2CC[C@@H](NC(=O)C3CCC4(CC3)CCN(CCNC(=O)[C@H]3CC(=O)N(C)[C@@H]3c3cccnc3)CC4)CC2)C1 [Example 170, N-((1S,4s)-4-(((1R,2S,5R)-5-(Isopropyl(methyl)amino)-2-((S)-2-oxo-3-((6-(trifluoromethyl)quinazolin-4-yl)amino)pyrrolidin-1-yl)cyclohexyl)carbamoyl)cyclohexyl)-3-(2-((2S,3S)-1-methyl-5-oxo-2-(pyridin-3-yl)pyrrolidine-3-carboxamido)ethyl)-3-azaspiro[5.5]undecane-9-carboxamide] | 1 nM
CC(C)N(C)[C@@H]1CC[C@H](N2CC[C@H](Nc3ncnc4ccc(C(F)(F)F)cc34)C2=O)[C@H](NC(=O)C2CCN(C3CCN(C(=O)CCOCCOCCNC(=O)[C@H]4CC(=O)N(C)[C@@H]4c4cccnc4)CC3)CC2)C1 [Example 172, N-((1R,2S,5R)-5-(Isopropyl(methyl)amino)-2-((S)-2-oxo-3-((6-(trifluoromethyl)quinazolin-4-yl)amino)pyrrolidin-1-yl)cyclohexyl)-1′-(3-(2-(2-((2S,3S)-1-methyl-5-oxo-2-(pyridin-3-yl)pyrrolidine-3-carboxamido)ethoxy)ethoxy)propanoyl)-[1,4′-bipiperidine]-4-carboxamide] | 0.794 nM
CC(C)N(C)[C@@H]1CC[C@H](N2CC[C@H](Nc3ncnc4ccc(C(F)(F)F)cc34)C2=O)[C@H](NC(=O)[C@H]2CC[C@@H](NC(=O)CCOCCOCCNC(=O)CCCNC(=O)[C@H]3CC(=O)N(C)[C@@H]3c3cccnc3)CC2)C1 [Example 176, (2S,3S)-N-(4-((2-(2-(3-(((1S,4s)-4-(((1R,2S,5R)-5-(Isopropyl(methyl)amino)-2-((S)-2-oxo-3-((6-(trifluoromethyl)quinazolin-4-yl)amino)pyrrolidin-1-yl)cyclohexyl)carbamoyl)cyclohexyl)amino)-3-oxopropoxy)ethoxy)ethyl)amino)-4-oxobutyl)-1-methyl-5-oxo-2-(pyridin-3-yl)pyrrolidine-3-carboxamide] | 0.794 nM and 0.398 nM
CC(C)N(CCOCCOCCC(=O)N[C@H]1CC[C@@H](C(=O)N[C@@H]2C[C@H](N(C)C(C)C)CC[C@@H]2N2CC[C@H](Nc3ncnc4ccc(C(F)(F)F)cc34)C2=O)CC1)C(=O)CCCNC(=O)[C@H]1CC(=O)N(C)[C@@H]1c1cccnc1 [Example 177] | 0.501 nM and 0.316 nM
CC(C)N(C)[C@@H]1CC[C@H](N2CC[C@H](Nc3ncnc4ccc(C(F)(F)F)cc34)C2=O)[C@H](NC(=O)CCCN2CCC3(CCC(C(=O)NCCNC(=O)[C@H]4CC(=O)N(C)[C@@H]4c4cccnc4)CC3)CC2)C1 [Example 183, 3-(4-(((1R,2S,5R)-5-(Isopropyl(methyl)amino)-2-((S)-2-oxo-3-((6-(trifluoromethyl)quinazolin-4-yl)amino)pyrrolidin-1-yl)cyclohexyl)amino)-4-oxobutyl)-N-(2-((2S,3S)-1-methyl-5-oxo-2-(pyridin-3-yl)pyrrolidine-3-carboxamido)ethyl)-3-azaspiro[5.5]undecane-9-carboxamide, 3 Formic acid salt] | 0.501 nM
CC(C)N(C)[C@@H]1CC[C@H](N2CC[C@H](Nc3ncnc4ccc(C(F)(F)F)cc34)C2=O)[C@H](NC(=O)C2CCN(C3CCN(C4CCN(CCCCNC(=O)[C@H]5CC(=O)N(C)[C@@H]5c5cccnc5)CC4)CC3)CC2)C1 [Example 185, N-((1R,2S,5R)-5-(isopropyl(methyl)amino)-2-((S)-2-oxo-3-((6-(trifluoromethyl)quinazolin-4-yl)amino)pyrrolidin-1-yl)cyclohexyl)-1″-(4-((2S,3S)-1-methyl-5-oxo-2-(pyridin-3-yl)pyrrolidine-3-carboxamido)butyl)-[1,4′:1′,4″-terpiperidine]-4-carboxamide] | 0.501 nM
CC(C)N(C)[C@@H]1CC[C@H](N2CC[C@H](Nc3ncnc4ccc(C(F)(F)F)cc34)C2=O)[C@H](NC(=O)[C@H]2CC[C@H](C3CCN(CCOCCOCCNC(=O)[C@H]4CC(=O)N(C)[C@@H]4c4cccnc4)CC3)CC2)C1 [Example 189, (2S,3S)-N-(2-(2-(2-(4-((1R,4r)-4-(((1R,2S,5R)-5-(Isopropyl(methyl)amino)-2-((S)-2-oxo-3-((6-(trifluoromethyl)quinazolin-4-yl)amino)pyrrolidin-1-yl)cyclohexyl)carbamoyl)cyclohexyl)piperidin-1-yl)ethoxy)ethoxy)ethyl)-1-methyl-5-oxo-2-(pyridin-3-yl)pyrrolidine-3-carboxamide] | 6.31 nM
CC(C)N(C)[C@@H]1CC[C@H](N2CC[C@H](Nc3ncnc4ccc(C(F)(F)F)cc34)C2=O)[C@H](NC(=O)[C@H]2CC[C@@H](NC(=O)CCCOCCCOCCCNC(=O)[C@H]3CC(=O)N(C)[C@@H]3c3cccnc3)CC2)C1 [Example 193, (2S,3S)-N-(3-(3-(4-(((1S,4s)-4-(((1R,2S,5R)-5-(Isopropyl(methyl)amino)-2-((S)-2-oxo-3-((6-(trifluoromethyl)quinazolin-4-yl)amino)pyrrolidin-1-yl)cyclohexyl)carbamoyl)cyclohexyl)amino)-4-oxobutoxy)propoxy)propyl)-1-methyl-5-oxo-2-(pyridin-3-yl)pyrrolidine-3-carboxamide] | 0.398 nM and 0.126 nM
CC(C)N(C)[C@@H]1CC[C@H](N2CC[C@H](Nc3ncnc4ccc(C(F)(F)F)cc34)C2=O)[C@H](NC(=O)CCCCCCCCNCCOCCOCCOCCOCCNC(=O)[C@H]2CC(=O)N(C)[C@@H]2c2cccnc2)C1 [Example 195, (2S,3S)-N-(24-(((1R,2S,5R)-5-(Isopropyl(methyl)amino)-2-((S)-2-oxo-3-((6-(trifluoromethyl)quinazolin-4-yl)amino)pyrrolidin-1-yl)cyclohexyl)amino)-24-oxo-3,6,9,12-tetraoxa-15-azatetracosyl)-1-methyl-5-oxo-2-(pyridin-3-yl)pyrrolidine-3-carboxamide, 3Trifluoroacetic acid salt] | 0.158 nM
